# Results: ChEMBL document CHEMBL6134887, “Linker and Head-Group Exploration of Anti-MRSA Triaromatic Pleuromutilins” (J Med Chem, 2025)
# Tests used:
# Staphylococcus aureus [1] = test: Antibacterial activity against methicillin susceptible Staphylococcus aureus ATCC 29213 assessed as inhibition of bacterial growth incubated for 20 to 24 hrs by microbroth serial dilution method; type: functional; details: time 20-24 hrs, read-out: MIC100
# Staphylococcus aureus [2] = test: Antibacterial activity against methicillin resistant Staphylococcus aureus clinical isolate 933010 assessed as inhibition of bacterial growth incubated for 20 to 24 hrs by microbroth serial dilution method; type: functional; details: time 20-24 hrs, read-out: MIC100
# [3] = Metabolic stability in mouse liver microsomes assessed as half-life at 1 uM measured up to 60 mins by LC-MS/MS analysis; type: ADME, Microsome
# Staphylococcus aureus [4] = test: Antibacterial activity against methicillin susceptible Staphylococcus aureus ATCC 25923 assessed as inhibition of bacterial growth incubated for 20 to 24 hrs by microbroth serial dilution method; type: functional; details: time 20-24 hrs, read-out: MIC100
# Staphylococcus aureus [5] = test: Antibacterial activity against methicillin resistant Staphylococcus aureus clinical isolate 52518 assessed as inhibition of bacterial growth incubated for 20 to 24 hrs by microbroth serial dilution method; type: functional; details: time 20-24 hrs, read-out: MIC100
# [6] = Metabolic stability in mouse liver assessed as intrinsic clearance at 1 uM measured up to 60 mins by LC-MS/MS analysis; type: ADME, tissue-based; details: read-out: CLH
# Staphylococcus aureus [7] = test: Antibacterial activity against mupirocin resistant Staphylococcus aureus 4828 assessed as inhibition of bacterial growth incubated for 20 to 24 hrs by microbroth serial dilution method; type: functional; details: time 20-24 hrs, read-out: MIC100
# Staphylococcus aureus [8] = test: Antibacterial activity against methicillin resistant Staphylococcus aureus clinical isolate 55508 assessed as inhibition of bacterial growth incubated for 20 to 24 hrs by microbroth serial dilution method; type: functional; details: time 20-24 hrs, read-out: MIC100
# Streptococcus pneumoniae = test: Antibacterial activity against Streptococcus pneumoniae assessed as inhibition of bacterial growth incubated for 20 to 24 hrs by microbroth serial dilution method; type: functional; details: time 20-24 hrs, read-out: MIC100
# Staphylococcus aureus [9] = test: Antibacterial activity against methicillin resistant Staphylococcus aureus USA300 FPR3757 assessed as inhibition of bacterial growth incubated for 20 to 24 hrs by microbroth serial dilution method; type: functional; details: time 20-24 hrs, read-out: MIC100
# Enterococcus faecium [10] = test: Antibacterial activity against vancomycin, ampicillin and ciprofloxacin resistant Enterococcus faecium clinical isolate 5 assessed as inhibition of bacterial growth incubated for 20 to 24 hrs by microbroth serial dilution method; type: functional; details: time 20-24 hrs, read-out: MIC100
# Enterococcus faecium [11] = test: Antibacterial activity against vancomycin, ampicillin and ciprofloxacin resistant Enterococcus faecium clinical isolate 1 assessed as inhibition of bacterial growth incubated for 20 to 24 hrs by microbroth serial dilution method; type: functional; details: time 20-24 hrs, read-out: MIC100
# Enterococcus faecalis = test: Antibacterial activity against Enterococcus faecalis assessed as inhibition of bacterial growth incubated for 20 to 24 hrs by microbroth serial dilution method; type: functional; details: time 20-24 hrs, read-out: MIC100
# [12] = Metabolic stability in human liver microsomes assessed as half-life at 1 uM measured up to 30 mins by LC-MS/MS analysis; type: ADME, Microsome
# [13] = Metabolic stability in human liver assessed as intrinsic clearance at 1 uM measured up to 30 mins by LC-MS/MS analysis; type: ADME, tissue-based; details: read-out: CLH
SMILES,MIC (Staphylococcus aureus [1]) [mg/L],MIC (Staphylococcus aureus [2]) [mg/L],half-life at 1 µM [3] [min],MIC (Staphylococcus aureus [4]) [mg/L],MIC (Staphylococcus aureus [5]) [mg/L],CLint scaled at 1 µM [6] [L/h/kg],MIC (Staphylococcus aureus [7]) [mg/L],MIC (Staphylococcus aureus [8]) [mg/L],MIC (Streptococcus pneumoniae) [mg/L],MIC (Staphylococcus aureus [9]) [mg/L],MIC (Enterococcus faecium [10]) [mg/L],MIC (Enterococcus faecium [11]) [mg/L],MIC (Enterococcus faecalis) [mg/L],half-life at 1 µM [12] [min],CLint scaled at 1 µM [13] [L/h/kg]
C=C[C@]1(C)C[C@@H](OC(=O)Cn2cc(-c3ccc(Cn4cnc5c(N)ncnc54)cc3)nn2)[C@]2(C)[C@H](C)CC[C@]3(CCC(=O)[C@H]32)[C@@H](C)[C@@H]1O,0.03,0.25,< 0.5,0.06,0.03,> 600,0.06,0.06,–,–,–,–,–,–,–
C=C[C@]1(C)C[C@@H](OC(=O)Cn2cc(-c3cncc(C(=O)Nc4ccc(N)nc4)c3)nn2)[C@]2(C)[C@H](C)CC[C@]3(CCC(=O)[C@H]32)[C@@H](C)[C@@H]1O,–,–,0.6,–,–,546,–,–,1,0.25,1,1,1,–,–
C=C[C@]1(C)C[C@@H](OC(=O)Cn2cc(-c3ccc(Cn4cnc5c(N)ncnc54)nc3)nn2)[C@]2(C)[C@H](C)CC[C@]3(CCC(=O)[C@H]32)[C@@H](C)[C@@H]1O,0.06,–,0.58,0.06,–,571,–,–,–,–,–,–,–,–,–
C=C[C@]1(C)C[C@@H](OC(=O)Cn2cc(-c3cncc(NC(=O)c4ccc(OC)cc4)c3)nn2)[C@]2(C)[C@H](C)CC[C@]3(CCC(=O)[C@H]32)[C@@H](C)[C@@H]1O,–,–,0.56,–,–,591,–,–,–,0.06,–,–,–,1.7,219
C=C[C@]1(C)C[C@@H](OC(=O)Cn2cc(-c3cccc(C(=O)Nc4ncnc5[nH]cnc45)c3)nn2)[C@]2(C)[C@H](C)CC[C@]3(CCC(=O)[C@H]32)[C@@H](C)[C@@H]1O,–,–,1.2,–,–,276,–,–,–,0.12,–,–,–,2.7,140
C=C[C@]1(C)C[C@@H](OC(=O)Cn2cc(-c3cncc(C(O)c4ccc5c(N)ncnn45)c3)nn2)[C@]2(C)[C@H](C)CC[C@]3(CCC(=O)[C@H]32)[C@@H](C)[C@@H]1O (some centres not stated),–,–,2.5,–,–,131,–,–,–,0.25,–,–,–,5.4,68.8
C=C[C@]1(C)C[C@@H](OC(=O)Cn2cc(-c3ccc(Cn4ccnc4)nc3)nn2)[C@]2(C)[C@H](C)CC[C@]3(CCC(=O)[C@H]32)[C@@H](C)[C@@H]1O,–,–,2.4,–,–,140,–,–,–,1,–,–,–,6.2,60.3
C=C[C@]1(C)C[C@@H](OC(=O)CSC(C)(C)CNC(=O)[C@H](N)C(C)C)[C@]2(C)[C@H](C)CC[C@]3(CCC(=O)[C@H]32)[C@@H](C)[C@@H]1O [VALNEMULIN],0.03,0.25,0.78,0.12,0.06,212,0.06,0.12,0.06,0.06,0.015,0.015,0.03,> 77.9,< 5.16
C=C[C@]1(C)C[C@@H](OC(=O)CS[C@@H]2CC[C@@H](N)C[C@H]2O)[C@]2(C)[C@H](C)CC[C@]3(CCC(=O)[C@H]32)[C@@H](C)[C@@H]1O [LEFAMULIN],0.25,–,11.5,0.12,–,28.7,–,–,–,–,–,–,–,–,–
C=C[C@]1(C)C[C@@H](OC(=O)Cn2cc(-c3ccc(CNc4cc(N)ncn4)cc3)nn2)[C@]2(C)[C@H](C)CC[C@]3(CCC(=O)[C@H]32)[C@@H](C)[C@@H]1O,–,–,0.55,–,–,> 600,–,–,–,0.03,–,–,–,1.3,289
C=C[C@]1(C)C[C@@H](OC(=O)Cn2cc(-c3ccc(C(O)c4ccc5c(N)ncnn45)cn3)nn2)[C@]2(C)[C@H](C)CC[C@]3(CCC(=O)[C@H]32)[C@@H](C)[C@@H]1O (some centres not stated),–,–,0.66,–,–,500,–,–,–,0.03,–,–,–,1.4,275
C=C[C@]1(C)C[C@@H](OC(=O)Cn2cc(-c3cncc(C(=O)Nc4ncnc5[nH]cnc45)c3)nn2)[C@]2(C)[C@H](C)CC[C@]3(CCC(=O)[C@H]32)[C@@H](C)[C@@H]1O,–,–,1.3,–,–,246,–,–,–,0.06,–,–,–,3.6,104
C=C[C@]1(C)C[C@@H](OC(=O)Cn2cc(-c3cccc(NC(=O)c4ccc(OC)cc4)c3)nn2)[C@]2(C)[C@H](C)CC[C@]3(CCC(=O)[C@H]32)[C@@H](C)[C@@H]1O,–,–,–,–,–,–,–,–,0.25,0.12,0.25,0.12,0.5,–,–
C=C[C@]1(C)C[C@@H](OC(=O)Cn2cc(-c3ccc(Cn4ccc5c(N)ncnc54)c(OC)c3)nn2)[C@]2(C)[C@H](C)CC[C@]3(CCC(=O)[C@H]32)[C@@H](C)[C@@H]1O,–,–,0.68,–,–,486,–,–,–,0.12,–,–,–,1.2,310
C=C[C@]1(C)C[C@@H](OC(=O)Cn2cc(-c3ccc(C(=O)c4ccc5c(N)ncnn45)cn3)nn2)[C@]2(C)[C@H](C)CC[C@]3(CCC(=O)[C@H]32)[C@@H](C)[C@@H]1O,–,–,0.54,–,–,> 600,–,–,–,0.06,–,–,–,1.7,221
C=C[C@]1(C)C[C@@H](OC(=O)Cn2cc(-c3ccc(C(O)c4ccc5c(N)ncnn45)nc3)nn2)[C@]2(C)[C@H](C)CC[C@]3(CCC(=O)[C@H]32)[C@@H](C)[C@@H]1O (some centres not stated),–,–,0.74,–,–,447,–,–,–,0.03,–,–,–,1.3,284
C=C[C@]1(C)C[C@@H](OC(=O)CS[C@@H]2C[C@H]3CC[C@@H](C2)N3C)[C@]2(C)[C@H](C)CC[C@]3(CCC(=O)[C@H]32)[C@@H](C)[C@@H]1O [RETAPAMULIN],0.12,0.5,1.3,0.06,0.12,123,0.25,0.25,0.06,0.25,0.03,0.03,0.12,2.4,159
C=C[C@]1(C)C[C@@H](OC(=O)Cn2cc(-c3cccc(Nc4ncnc5[nH]cnc45)c3)nn2)[C@]2(C)[C@H](C)CC[C@]3(CCC(=O)[C@H]32)[C@@H](C)[C@@H]1O,–,–,0.67,–,–,489,–,–,0.5,0.06,0.25,0.25,0.5,2,188
